Data taken from paper PMC9321718 (Pharmaceuticals, 2022).
Values after ≈ are worked out from the molar mass of the structure shown.

Key:
[1] = Formation of inclusion complexes with MCD (UV spectroscopy, Hill linearization); assay type: physicochemical; details: MCD
Method: To optimize the system composition, similar experiments were carried out on the formation of EG and apiol inclusion complexes with HPCD (Figure S1). […] According to these changes, the dissociation constants of the EG–HPCD and apiol–HPCD complexes (Figure S2) were calculated by Hill’s equation (Table 1). […] The physicochemical parameters of the interaction of APAB and terpenoids (X) with CD were studied by determining the concentration of substances in the aqueous fraction ([APAB] + [APAB-MCD]) according to the calibration dependence (Figure 1C) for systems with a constant amount of the essential oil component X and the concentration gradient MCD (Table 1). Theta (θ) is a fraction of the bound substance X:θ = [X-MCD]/([X-MCD] + [X]) and was calculated based on the dependence of the absorption intensity X on the MCD concentration in the system in the form of a sigmoidal Hill curve with subsequent linearization (Section 3, Section 3.3 and Section 3.4).
The molar excess of CD varied from 0.04 to 10). Further, the complexes were incubated for 1 h at 37 °C and then centrifuged ([…], 15 min, Eppendorf tubes) to separate the insoluble fractions. Complexes were studied by UV and FTIR spectroscopy.
UV spectra of solutions (point 3.3.1) were recorded on the AmerSham Biosciences UltraSpec 2100 pro device (USA) three times in the range of 200–400 nm in a quartz cell Hellma 100–QS with an optical path of 1 cm. Background spectrum (5 mM sodium phosphate buffer (pH 6.2) with 50% EtOH) was subtracted as a blank.
(1) Calculation of the dissociation constants X–MCD and X–HPCD, where X is a “guest” compound, considering the equilibrium: Xaq + n MCDaq ↔ X·nMCDaq, where Kd = [MCDaq]^n · [Xaq]/[X·nMCDaq].
First, fitting of the curves of change of the analytical signal ξ (peak intensity or peak position) versus concentration of the MCD or HPCD or was carried out using the Hill equations: (1) ξ = ξ∞ · [MCD]^n/([MCD]^n + K^n), where ξ∞—horizontal asymptote; (2) ξ = ξ0 + (ξ∞–ξ0) · [MCD]^n/([MCD]^n + K^n). Second, calculation n and Kd values by Hill’s linearization in n-binding site model: lg (θ/(1 – θ)) = n · lg [L] – lg Kd, where θ = |(ξ – ξ0)/(ξ∞ − ξ0)|is a fraction of the bound substance. N in Hill equation—number of drug molecules per CD torus.
Calculations for the following items are performed when [MCD] = 0.01 M.

E. coli = experiment: Synergy of adjuvant-MCD with Lev-MCD, growth inhibition zones in agar; assay type: cell-based, Escherichia coli
Method: (§1) We obtained complex formulations containing adjuvants-MCD and Lev-MCD. These complexes were referred to as enhanced Lev. The synergy effect was studied at a constant concentration of Lev and a variable concentration of an enhancer. […] Based on the D/DLev ratio, the effectiveness of cooperative antibacterial action (ϕ) of the adjuvant and Lev was calculated. The fractional inhibitory concentration (FIC) parameter was introduced: at a fixed Lev concentration, the FIC of adjuvant corresponds to the minimum fractional adjuvant concentration at which the antibacterial effect was still manifest (MICadjuvant in the presence of Lev). The fractional inhibitory concentration index (FICI) characterizes the ratio of the active Lev and adjuvant concentrations to the MIC values of these substances individually: FICI=[Lev]/MIC(Lev)[…][adjuvant]/MIC(adjuvant) (see Section 3).
(§2) The FICI was interpreted as: synergism (<0.35), additivity (0.35–0.75), indifference (0.75–1.4), or antagonism (>1.4). FICI is designed to determine the type of Lev interaction with adjuvants.
(§3) The study of the antibacterial effect of Lev and adjuvants was carried out by (a) agar diffusion test and (b) broth micro-dilution method. (a) A measured 500 µL of 100-fold culture dilution was evenly distributed over a solid nutrient medium (LB, pH 7.2) on a Petri dish. After 20 min, agar disks with a diameter of 9 mm were removed from the cups and 50 µL of the test samples were placed in the formed wells at the required concentration in a sterile PBS buffer (see Section 3.3 (2)). After 30 min, Petri dishes were placed in a 37 °C thermostat. […] Minimum inhibitory concentrations (MICs) are determined as the infimum of multiple concentrations of an antimicrobial that inhibits the visible growth of a microorganism after overnight incubation. (b) According to the standard broth micro-dilution method, 200 µL of the overnight culture (5 × 10^6 CFU) was placed into a 96 micro-titer plate wells. Then 50 µL of tested samples was added. The range of tested Lev concentration was 4–200 ng/mL, adjuvants concentration was in the range of 0.008–2 mg/mL. […] The dependence of CFU (determined by A600) on the concentration of Lev, APAB or terpenoid (briefly X) was approximated according to the Boltzmann equation (Origin software): CFU = (control CFU)/(1 + exp(([X] − MIC50)/constant value)). […] In other words, the concentration at which the ordinate value (CFU) is equal to 50 or 10% of the control sample minus the background.
(§4) The FICI was interpreted as: synergism (<0.35), additivity (0.35–0.75), indifference (0.76–1.4), or antagonism (>1.4). The essence of this expression is to calculate the average change in the effective concentration compared to MIC. Note that the most important parameter corresponds to a decrease in MIC of Lev. However, FICI is designed to determine the type of interaction Lev with adjuvants.

B. subtilis = experiment: as above; assay type: cell-based, Bacillus subtilis; details: B. subtilis; for D, diameter of bacterial inhibition zone surrounding Lev–MCD with APAB-MCD: Lev-MCD + X-MCD (1:2), ±0.5; for ϕLev = (D/DLev)^2: ±0.1
Method: as §1, §2, §3, §4

physchem = details: 22 °C, pH 6.2, water
Method: (3) Solubility of X in water C0 = [Xaq] = A/(ε · l) was determined by UV absorbance after centrifugation of samples (10 min, 10,000× g). l = 1 cm. ε—molar absorbance coefficient (Figure 1C).

With C=CCc1ccc2c(c1)OCO2 [Safrole] the “EE, %” value ([1]; C(MCD) = 0.01 M, pH 6.2, 22 °C) was 95 ± 4%, the “LC, %” value ([1]; C(MCD) = 0.01 M, pH 6.2, 22 °C) was 8 ± 1% and the “EE, %” value ([1]; C(MCD) = 0.01 M, pH 6.2, 22 °C, listed as safrole) was “more than 90%”. The n ([1]; Xaq + n MCDaq ⇌ X·nMCDaq, 5 mM sodium phosphate buffer pH 6.2, 22 °C) was 1.5 ± 0.2, the “MICLev in the presence of adjuvant” value (E. coli) was 0.015 to 0.02 µg/mL and the “D, diameter of bacterial inhibition zone surrounding Lev–MCD with APAB-MCD” value (E. coli; E. coli, CLev 0.15 μg/mL, Lev-MCD + X-MCD (1:2), ±0.5) was 14.5 mm. For the same compound, the “ϕLev = (D/DLev)^2” value (E. coli; E. coli, CLev 0.15 μg/mL, ±0.1) was 2.1, the FICI (E. coli; E. coli, CLev 0.15 μg/mL, ±15%) was 0.09 and the FICadjuvant (B. subtilis; CLev 0.4 μg/mL) was 0.17 ± 0.02 mg/mL. For the same compound, the “Type of Interaction between Lev and X” value (B. subtilis; CLev 0.4 μg/mL) was “Synergism (synergism (<0.35))”, the “D, diameter of bacterial inhibition zone surrounding Lev–MCD with APAB-MCD” value (B. subtilis; CLev 0.4 μg/mL) was 14 mm and the “ϕLev = (D/DLev)^2” value (B. subtilis; CLev 0.4 μg/mL) was 1.4. For the same compound, the FICI (B. subtilis; CLev 0.4 μg/mL, ±15%) was 0.08, the FICadjuvant (B. subtilis; CLev 0.7 μg/mL) was 0.33 ± 0.03 mg/mL and the “Type of Interaction between Lev and X” value (B. subtilis; CLev 0.7 μg/mL) was “Synergism (synergism (<0.35))”. The “D, diameter of bacterial inhibition zone surrounding Lev–MCD with APAB-MCD” value (B. subtilis; CLev 0.7 μg/mL) was 16 mm, the “ϕLev = (D/DLev)^2” value (B. subtilis; CLev 0.7 μg/mL) was 1.1 and the FICI (B. subtilis; CLev 0.7 μg/mL, ±15%) was 0.28. The FICadjuvant (B. subtilis; CLev 1.5 μg/mL) was 0.15 ± 0.02 mg/mL, the “Type of Interaction between Lev and X” value (B. subtilis; CLev 1.5 μg/mL) was “Synergism (synergism (<0.35))” and the “D, diameter of bacterial inhibition zone surrounding Lev–MCD with APAB-MCD” value (B. subtilis; CLev 1.5 μg/mL) was 20 mm. For the same compound, the “ϕLev = (D/DLev)^2” value (B. subtilis; CLev 1.5 μg/mL) was 1.4, the FICI (B. subtilis; CLev 1.5 μg/mL, ±15%) was 0.27 and the FICI (B. subtilis; with Lev) was 0.08–0.11. It also gave a solubility (physchem) of 800 ± 100 µM (≈ 130 µg/mL).
